Experimental data as given in US20210369681A1, “Identification of PPM1D mutations as a novel biomarker for NAMPTi sensitivity” (YALE UNIVERSITY, priority 2018, published 2021).
Read-outs that look alike come from different tables or passages of the source.

How the values were obtained:
PPM1Dtrnc. astrocytes = conditions: for NAMPT inhibitor sensitivity of PPM1D mutant astrocytes: 72 hr treatment, structurally distinct NAMPT inhibitors
Protocol: (§1) PPM1D^trnc. astrocytes were treated with 50 µg/mL cycloheximide or 1 μM MG132 (both Sigma) for the indicated amount of time. Cells were then washed, pelleted, and lyzed for subsequent immunoblotting approaches, as described above. Quantification of immunoblot intensity was calculated using ImageJ software, and consisted of multiple (n=3) blots. Irradiation of cells was performed using an X-RAD KV irradiator (Precision X-ray), and treatment consisted of an unfractionated, 10 Gy dose. PPM1D inhibitor treatment with GSK2830371 (Selleckchem), consisted of 50 nM treatment, 24 hours prior to IR. FK866 (Selleckchem), GPP78 (Tocris Bioscience), STF118804 (Tocris Bioscience), STF31 (Tocris Bioscience), 5-azacytidine (Selleckchem), and Decitabine (Selleckchem) were dissolved in DMSO and used for treatment as indicated.
(§2) In vitro cellular viability assessments of immortalized human astrocytes, MCF7, and U2OS cell lines were made using a previously described, high-content, microscopy platform developed by our group. In brief, cells were plated in a 96-well plate at a density of 2000 cells/well, and incubated overnight. Drug treatment or vehicle (0.5% DMSO) control was administered, and cells were incubated for 72-96 hours as indicated. Plates were then washed with PBS and fixed with ice-cold 70% ethanol for 2 hours at 4° C. […] Cells were imaged using a Cytation3 imager (BioTek), and images were stitched and analyzed as described above. Viability assessments were made comparing drug treated to vehicle treated conditions. SU-DIPG and HSJD-DIPG-007 spheroid viability was assessed using CytoTox-Glo (Promega), according to the manufacturer's protocols. Spheroids were treated with FK866 for 120 hours before analysis using this method. IC50 calculations were made using GraphPad Prism, by fitting data to an [inhibitor] vs response−variable slope four parameter nonlinear regression (as depicted in the representative figures). siRNA Transfection and Viability Analysis Individual NAPRT targeting siRNAs were ordered from Dharmacon Inc. (Horizon Discovery), with target sequences listed in Table 1. The panel of siRNAs used for synthetic lethal viability screening was hand-selected and ordered from Dharmacon Inc. and were provided in ON-TARGET plus mixtures, each containing up to four unique siRNAs per gene. 2×10^5 astrocytes were reverse-transfected with different siRNAs (200 nM final concentration), using Lipofectamine RNAiMAX (Invitrogen), according to manufacturer's protocols. For individual siRNAs, cells were incubated for 72 hours, pelleted, and lyzed for immunoblotting. For the siRNA screen, cells were incubated for 24 hours and split to different condition plates, where they were incubated for an additional 24 hours. Cells were then treated with the described doses of FK866, and viability was assessed after 72 hours of drug treatment, using the image-based pipeline described above. Viability measurements were made for each siRNA, and normalized to FK866-untreated conditions.

[1] = tested on: NAPRT expression in PPM1Dtrnc. cells; assay: NAPRT immunoblot after DNA demethylating agents; format: cell-based, human; conditions: varying doses, 72 hrs
Protocol: as §1

[2] = tested on: U2OS cell line xenografts; assay: U2OS cell line xenografts; format: in vivo, athymic nude mice
SU-DIPG-XXXV = assay: DIPG spheroid viability (CytoTox-Glo), PPM1D mutant line; format: cell-based, human; conditions: 120 hr treatment; spheroids
[3] = tested on: parental and PPM1Dtrnc. immortalized human astrocytes; format: cell-based
Protocol: as §2
Given the role of PPM1D in DDR pathways, we performed a small molecule synthetic lethal screen with a panel of inhibitors against key DNA repair and metabolic proteins, using methodology described previously by our group.

[4] = tested on: SU-DIPG-IV, XIII, and XVII (WT DIPG lines); assay: DIPG spheroid viability (CytoTox-Glo), SU-DIPG lines; format: cell-based, human
[5] = tested on: NAD and NADP levels in WT and PPM1Dtrnc. astrocytes; assay: NAD / NADP quantification in astrocytes; format: cell-based, human
Protocol: The NAD metabolome was quantitatively analyzed using LC-MS/MS, using two separations on Hypercarb and 13C metabolite standards. Subsequent NAD level analyses were performed using a NAD/NADH Quantification kit (Sigma), as per the manufacturer's specifications. Me/hME-DIP, Bisulfite Conversion, and Global 5-hmC Detection Genomic DNA was purified using the Wizard Genomic DNA purification kit (Promega), and subsequently immunoprecipitated or bisulfite-converted. […] Immunoprecipitated DNA was extracted with phenol/chloroform and analyzed using quantitative PCR (qPCR), as described below. Bisulfite conversion was performed via EpiMark Bisulfite Conversion kit (NEB). Modified DNA was then amplified using EpiMark Hot Start Taq DNA polymerase (NEB), with primers listed in Table 1, and purified with a PCR purification kit (Qiagen). Methylation was then assessed through Sanger-sequencing of the NAPRT promoter. Global 5-hydroxymethylcytosine levels were assessed via the Global 5-hmC quantification kit (Active Motif), according to manufacturer's protocols. Quantitative PCR (qPCR) mRNA transcripts were purified from cells using a RNAeasy kit (Qiagen) and subsequently reverse transcribed using a High Capacity cDNA reverse transcription kit (Applied Biosystems). PPM1D and NAPRT gene expression levels were assessed through qPCR with TaqMan fluorescent probes (all from Applied Biosystems): PPM1D (4331182), NAPRT (4351372), and Actin (4333762F), according to manufacturer's protocol. Expression level fold change was calculated via ΔΔCt comparison, using Actin as a reference gene. The NAPRT promoter region was quantitated via qPCR using Fast Start Universal SYBR Green Master with ROX (Roche), and primers listed in Table 1. All qPCR reactions were run on a StepOnePlus Real Time PCR system (Applied Biosystems).

MCF7 = MCF7 cell viability; format: cell-based, human; conditions: 96 hr treatment
Protocol: (§3) hTert/E6/E7 immortalized human astrocytes were acquired from the lab of Dr. Timothy Chan, and have been previously characterized. Unless noted otherwise, astrocytes were grown in DMEM, high glucose (ThermoFisher Scientific/Gibco) plus 10% FBS (Gibco) as adherent monolayers. U2OS cells were purchased from ATCC, and were grown in DMEM, high glucose plus 10% FBS. MCF7 cells were grown in RPMI1640 (ThermoFisher Scientific/Gibco) with the addition of 10% FBS.

[6] = tested on: PPM1Dtrnc. astrocyte xenografts; assay: PPM1Dtrnc. astrocyte cell line xenografts; format: in vivo, NOD scid gamma (NSG) mice; conditions: 20 mg/kg BID i.p.
Protocol: (§4) Astrocyte xenograft studies were performed in NOD scid gamma (NSG, NOD.Cg-Prkdc^scidIl2rg^tm1Wj1/SzJ female mice 3-4 weeks old) mice. For cell line xenografts, 5×10^6 WT or PPM1D^trnc. astrocytes, stably expressing firefly luciferase (lentivirus-plasmids from Cellomics Technology; PLV-10003), were combined with Matrigel (Corning, 47743-722) in a total volume of 0.2 mL. Cell-Matrigel suspension was injected subcutaneously into both the right and left flanks of shaved NSG mice. Mice were randomly sorted into treatment groups, and tumor burden and growth were measured on a weekly basis, via BLI intensity, as described below. FK866 was solubilized in DMSO at a concentration of 80 mg/ml. Mice were then administered the drug intraperitoneally twice a day for 4 days, repeated weekly for 3 weeks at 20 mg/kg in 10% cyclodextrin. Treatment began after one month of growth. Tumors were harvested after completion of treatment, and mass for each tumor was measured. Serially transplanted xenografts were created via continuous transplantation of PPM1D^trnc. cell line xenografts in NSG mice. […] Mice were sorted randomly into treatment groups, and tumor volume was measured using standard caliper-based techniques. Tumor volume was calculated as length×width^2×0.52. […] Mice were sorted randomly into treatment groups, and tumor burden was assessed through caliper measurement and volume calculations. […]

U2OS = U2OS cell viability; format: cell-based, human; conditions: 96 hr treatment
Protocol: as §3

[7] = tested on: serially-transplanted PPM1D mutant astrocyte xenografts; assay: Serially-transplanted PPM1D mutant astrocyte xenografts; format: in vivo, NSG mice; conditions: 20 mg/kg BID
Protocol: as §4

[8] = tested on: PPM1D (γH2AX foci in parental and PPM1Dtrnc. astrocytes); assay: γH2AX foci formation after ionizing radiation; format: cell-based, human; conditions: 10 Gy IR; 50 nM inhibitor 24 hours prior to IR
Protocol: Astrocyte cell lines were seeded and incubated overnight, before radiation. Plates were then collected at indicated time points, fixed, permeabilized/blocked, and stained with primary and secondary antibodies for fluorescent imaging. […] Cells were subsequently washed in 1×PBS, followed by a joint permeabilization and blocking step in incubation buffer (5% BSA and 0.5% TritonX100, in PBS) for 1 hour. Primary antibody raised against γH2AX […] (Millipore 05-636) was added at a dilution of 1:1000 in incubation buffer, and incubated overnight at 4° C. Plates were washed, followed by a 1 hour RT incubation with alexafluor-conjugated secondary antibodies (ThermoFisher A21425 or A11029, 1:10,000) and a nuclear dye, […] Hoechst 33342 (Sigma), in secondary buffer (0.5% TritonX100, in PBS). Plates were again washed, and imaged in PBS using the Cytation3 imaging system (BioTek). Images were stitched using Gen5 v2.09 software (BioTek), and both foci and cell numbers were counted using CellProfiler image processing software.

O=C(CCCCCCCn1cc(-c2cccnc2)nn1)Nc1ccccc1-c1ccccc1 [GPP78]
NAMPT inhibitor sensitivity of PPM1D mutant astrocytes (PPM1Dtrnc. astrocytes): confirmed

Nc1ncn([C@@H]2O[C@H](CO)[C@@H](O)[C@H]2O)c(=O)n1 [azacytidine]
Reversal of NAPRT gene silencing [1]: failed to reverse

CC(C)(C)c1ccc(S(=O)(=O)NCc2ccc(C(=O)Nc3cccnc3)cc2)cc1 [STF31]
NAMPT inhibitor sensitivity of PPM1D mutant astrocytes (PPM1Dtrnc. astrocytes): confirmed

O=C(/C=C/c1cccnc1)NCCCCC1CCN(C(=O)c2ccccc2)CC1 [FK866]
Tumor volume, fold change ([2]; 20 mg/kg BID for 3 four day weekly cycles, vs vehicle): 5.86 | Body mass difference between the treatment groups ([2]; all mice on study, throughout the dosing schedule (FIG. 13B)): no significant differences | Cytotoxic doses (SU-DIPG-XXXV): low, single-digit nanomolar range | IC50 ratio (Parental/PPM1Dtrnc.) [3]: 9746.59 | Sensitivity to FK866 in media devoid of nicotinic acid ([4]; all SU-DIPG spheroid cultures tested, growth media devoid of nicotinic acid (NA)): strong sensitivity | Response to FK866 treatment ([4]; three WT DIPG lines, 120 hr, NA-containing media): resistant | Decline of NAD and NADP compared with WT astrocytes ([5]; PPM1Dtrnc. cells, 10 nM FK866, 24 hrs): significantly greater | Cellular pools of NAD and NADP ([5]; WT astrocytes, 10 nM FK866, 24 hrs): dropped markedly | Sensitivity to FK866 treatment (MCF7): strong sensitivity | Lower final tumor mass, fold change ([6]; 3 cycles, versus vehicle alone): 3.1 | Reduction in tumor burden (BLI), fold change ([6]; 4 days weekly for 3 weeks, after three weeks, vs vehicle): 4.93 | Sensitivity to FK866 treatment (U2OS): strong sensitivity | Reduced overall tumor size, fold change ([7]; 3 cycles of four days on, three days off, calipers and BLI, vs vehicle): 17.1 | Tumor growth delay (Kaplan-Meier) ([7]; 3 cycles, compared to a vehicle control): significantly delayed

Cc1ncc(Cl)cc1NCc1ccc(C(=O)N[C@@H](CC2CCCC2)C(=O)NC2CC2)s1 [GSK2830371]
Differences in γH2AX foci between parental and PPM1Dtrnc. astrocytes after IR [8]: abolished

Cc1ccc(S(=O)(=O)Cc2nc(-c3ccc(C(=O)NCc4cccnc4)cc3)oc2C)cc1 [STF118804]
NAMPT inhibitor sensitivity of PPM1D mutant astrocytes (PPM1Dtrnc. astrocytes): confirmed

NC(=O)c1ccc[n+]([C@@H]2O[C@H](CO)[C@@H](O)[C@H]2O)c1 [NR, nicotinamide riboside]
Effect on the cytotoxicity of FK866 (PPM1Dtrnc. astrocytes): completely mitigated | Basal NAD levels ([5]; PPM1Dtrnc. astrocytes, exogenous NR (50 μM, 24 hrs)): sufficiently increased

NC(=O)c1cccnc1 [NAM, nicotinamide]
Effect on the cytotoxicity of FK866 (PPM1Dtrnc. astrocytes; PPM1Dtrnc. cells, 72 hr concurrent treatment with FK866): strongly antagonized
